From US9844536B2, “3-(1H-imidazo[4,5-C]pyridin-2-yl)-1H-pyrazolo[3,4-C]pyridine and therapeutic uses thereof” (Samumed, LLC, priority 2014, dated 2017) come the findings set out here.

A value given as a limit tells only on which side of the number the result lay.

Assay [1] relates to Wnt pathway (Sp5-Luc reporter, SW480 cells). The assay can be described thus: Sp5-Luc reporter gene screening assay for Wnt activity in SW480 colon carcinoma cells. It counts as cell-based. The following applies: Homo sapiens. Summed up:
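IC50 values come from variable-slope four-parameter fits of luciferase signal normalized to DMSO wells. Stable Sp5-Luc reporter SW480 colon carcinoma cells were exposed to compounds in a 3-fold dilution series (source plates from 10 mM stock) for forty-two hours at 37 °C.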
A general note: A reporter such as luciferase makes a cellular process visible.

Another assay has as its system LL29 cells. The assay can be described thus: Inhibition of the fibrotic process (αSMA staining) in TGF-β1 treated primary human fibroblasts from IPF patients. It counts as cell-based. The following applies: Fibroblast, 96 h, TGF-β1 20 ng/mL, 4 days, dose-response 10 μM to 1.87 nM, read-out: Inhibition of fibrosis EC50. Summed up:
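LL29 IPF lung fibroblasts in 1% FBS were stimulated with TGF-β1 (20 ng/mL) and treated 4 days at 37 °C with compound (11 points, 10 μM–1.87 nM, 0.1% DMSO). The % αSMA-positive cells, imaged after excluding SYTOX-positive dead cells, was normalized to TGF-β1/DMSO wells. EC50 came from nonlinear regression over triplicates.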

For orientation: IC50 means the point on the concentration scale where inhibition reaches its midpoint. Low readings indicate greater potency, high ones weaker potency. What is called EC50 is the concentration that produces a half-maximal response. On to `Cc1ccncc1-c1cc2c(-c3nc4c(-c5ccncc5)nccc4[nH]3)n[nH]c2cn1` [Compound 109, 5-(4-Methylpyridin-3-yl)-3-(4-(pyridin-4-yl)-1H-imidazo[4,5-c]pyridin-2-yl)-1H-pyrazolo[3,4-c]pyridine], for which the IC50 in assay [1] is 114 nM. Moreover, in the assay with LL29 cells, the EC50 was ≥ 9990 nM.

As to `CN(C)Cc1cncc(-c2cc3c(-c4nc5c(-c6cccs6)nccc5[nH]4)n[nH]c3cn2)c1` [Compound 325, N,N-Dimethyl-1-(5-(3-(4-(thiophen-2-yl)-1H-imidazo[4,5-c]pyridin-2-yl)-1H-pyrazolo[3,4-c]pyridin-5-yl)pyridin-3-yl)methanamine], the IC50 in assay [1] was > 10000 nM. In the assay with LL29 cells, the EC50 was ≤ 9 nM.

`CS(=O)(=O)NCc1cc(F)cc(-c2nccc3[nH]c(-c4n[nH]c5cnc(-c6cncc(CNCc7ccccc7)c6)cc45)nc23)c1` [Compound 439, N-(3-(2-(5-(5-((Benzylamino)methyl)pyridin-3-yl)-1H-pyrazolo[3,4-c]pyridin-3-yl)-1H-imidazo[4,5-c]pyridin-4-yl)-5-fluorobenzyl)methanesulfonamide] yielded an IC50 in assay [1] of 67.3 nM. Further, the EC50 in the assay with LL29 cells is ≤ 9 nM.

`O=C(Nc1cncc(-c2cc3c(-c4nc5c(N6CCCCC6)nccc5[nH]4)n[nH]c3cn2)c1)C1CC1` [Compound 175, N-(5-(3-(4-(Piperidin-1-yl)-1H-imidazo[4,5-c]pyridin-2-yl)-1H-pyrazolo[3,4-c]pyridin-5-yl)pyridin-3-yl)cyclopropanecarboxamide] yielded an IC50 in assay [1] of 636 nM. For the same compound, the EC50 in the assay with LL29 cells was ≤ 9 nM.

For `CC(C)CC(=O)Nc1cncc(-c2cc3c(-c4nc5c(-c6cc(O)cc(F)c6)nccc5[nH]4)n[nH]c3cn2)c1` [Compound 1350, N-(5-(3-(4-(3-Fluoro-5-hydroxyphenyl)-1H-imidazo[4,5-c]pyridin-2-yl)-1H-pyrazolo[3,4-c]pyridin-5-yl)pyridin-3-yl)-3-methylbutanamide], the IC50 in assay [1] amounted to 135 nM. Besides, the EC50 in the assay with LL29 cells was found to be 135 nM.

The compound `CN(C)c1cncc(-c2cc3c(-c4nc5c(-c6cccs6)nccc5[nH]4)n[nH]c3cn2)c1` [Compound 319, N,N-Dimethyl-5-(3-(4-(thiophen-2-yl)-1H-imidazo[4,5-c]pyridin-2-yl)-1H-pyrazolo[3,4-c]pyridin-5-yl)pyridin-3-amine] had a half-inhibitory concentration (IC50) in assay [1] of 53.4 nM. Also, the EC50 in the assay on LL29 cells is ≤ 9 nM.

Consider `CN1CCN(c2nccc3[nH]c(-c4n[nH]c5cnc(-c6cncc(CN7CCCCC7)c6)cc45)nc23)CC1` [Compound 223, 3-(4-(4-Methylpiperazin-1-yl)-1H-imidazo[4,5-c]pyridin-2-yl)-5-(5-(piperidin-1-ylmethyl)pyridin-3-yl)-1H-pyrazolo[3,4-c]pyridine], for which, in assay [1], the IC50 is > 10000 nM. Also, in the assay with LL29 cells, the EC50 was ≥ 9990 nM.

The compound `CC(C)Nc1cncc(-c2cc3c(-c4nc5c(-c6cccnc6)nccc5[nH]4)n[nH]c3cn2)c1` [Compound 90, N-Isopropyl-5-(3-(4-(pyridin-3-yl)-1H-imidazo[4,5-c]pyridin-2-yl)-1H-pyrazolo[3,4-c]pyridin-5-yl)pyridin-3-amine] yielded an IC50 in assay [1] of 11.2 nM. Further, the EC50 with LL29 cells was ≤ 9 nM.

In turn, `Fc1cccc(-c2nccc3[nH]c(-c4n[nH]c5cnc(-c6cnccn6)cc45)nc23)c1` [Compound 954, 3-(4-(3-Fluorophenyl)-1H-imidazo[4,5-c]pyridin-2-yl)-5-(pyrazin-2-yl)-1H-pyrazolo[3,4-c]pyridine] registered an IC50 in assay [1] of 20 nM. The concentration giving a half-maximal response (EC50) in the assay with LL29 cells is ≥ 9990 nM.

Turning to `CC(=O)c1ccc(-c2nccc3[nH]c(-c4n[nH]c5cnc(-c6cncc(NC(=O)Cc7ccccc7)c6)cc45)nc23)s1` [Compound 400, N-(5-(3-(4-(5-Acetylthiophen-2-yl)-1H-imidazo[4,5-c]pyridin-2-yl)-1H-pyrazolo[3,4-c]pyridin-5-yl)pyridin-3-yl)-2-phenylacetamide], in assay [1], the IC50 was > 10000 nM. Moreover, the 50% effective concentration (EC50) with LL29 cells was ≤ 9 nM.

`CC(C)CC(=O)Nc1cncc(-c2cc3c(-c4nc5c(-c6ccsc6)nccc5[nH]4)n[nH]c3cn2)c1` [Compound 262, 3-Methyl-N-(5-(3-(4-(thiophen-3-yl)-1H-imidazo[4,5-c]pyridin-2-yl)-1H-pyrazolo[3,4-c]pyridin-5-yl)pyridin-3-yl)butanamide] had an IC50 in assay [1] of 139 nM. Further, the EC50 with LL29 cells was ≥ 9990 nM.

With `CN1CCN(c2nccc3[nH]c(-c4n[nH]c5cnc(-c6cncc(NC(=O)C7CCCC7)c6)cc45)nc23)CC1` [Compound 229, N-(5-(3-(4-(4-Methylpiperazin-1-yl)-1H-imidazo[4,5-c]pyridin-2-yl)-1H-pyrazolo[3,4-c]pyridin-5-yl)pyridin-3-yl)cyclopentanecarboxamide], the IC50 in assay [1] was > 10000 nM. For the same compound, the EC50 with LL29 cells was ≥ 9990 nM.

For the compound `Fc1cccc(-c2nccc3[nH]c(-c4n[nH]c5cnc(-c6ccccn6)cc45)nc23)c1` [Compound 953, 3-(4-(3-Fluorophenyl)-1H-imidazo[4,5-c]pyridin-2-yl)-5-(pyridin-2-yl)-1H-pyrazolo[3,4-c]pyridine], the IC50 in assay [1] was determined as 320 nM. Moreover, the EC50 in the assay with LL29 cells came to 1940 nM.

In assay [1], `O=C(Nc1cncc(-c2cc3c(-c4nc5c(-c6ccc(F)cc6)nccc5[nH]4)n[nH]c3cn2)c1)C1CCC1` [Compound 46, N-(5-(3-(4-(4-Fluorophenyl)-1H-imidazo[4,5-c]pyridin-2-yl)-1H-pyrazolo[3,4-c]pyridin-5-yl)pyridin-3-yl)cyclobutanecarboxamide] returned a 50% inhibitory concentration (IC50) of 61 nM. Besides, the 50% effective concentration (EC50) with LL29 cells was ≤ 9 nM.

On to `Fc1cccc(-c2nccc3[nH]c(-c4n[nH]c5cnc(C6=CCNCC6)cc45)nc23)c1` [Compound 938, 3-(4-(3-Fluorophenyl)-1H-imidazo[4,5-c]pyridin-2-yl)-5-(1,2,3,6-tetrahydropyridin-4-yl)-1H-pyrazolo[3,4-c]pyridine], for which the 50% inhibitory concentration (IC50) in assay [1] came to 125 nM. Further, in the assay on LL29 cells, the EC50 amounted to 198 nM.

The compound `COc1cc(F)cc(-c2nccc3[nH]c(-c4n[nH]c5cnc(-c6cncc(NC(=O)CC(C)C)c6)cc45)nc23)c1` [Compound 1394, N-(5-(3-(4-(3-Fluoro-5-methoxyphenyl)-1H-imidazo[4,5-c]pyridin-2-yl)-1H-pyrazolo[3,4-c]pyridin-5-yl)pyridin-3-yl)-3-methylbutanamide] showed an IC50 in assay [1] of 151 nM. Further, the EC50 in the assay with LL29 cells was 332 nM.

In assay [1], `CC(C)Nc1cncc(-c2cc3c(-c4nc5c(-c6cc(F)cc(NCCN(C)C)c6)nccc5[nH]4)n[nH]c3cn2)c1` [Compound 454, N^1-(3-Fluoro-5-(2-(5-(5-(isopropylamino)pyridin-3-yl)-1H-pyrazolo[3,4-c]pyridin-3-yl)-1H-imidazo[4,5-c]pyridin-4-yl)phenyl)-N2,N2-dimethylethane-1,2-diamine] yielded an IC50 of 266 nM. Also, in the assay on LL29 cells, the EC50 is 1620 nM.

`CCNCc1cncc(-c2cc3c(-c4nc5c(-c6ccccn6)nccc5[nH]4)n[nH]c3cn2)c1` [Compound 136, N-((5-(3-(4-(Pyridin-2-yl)-1H-imidazo[4,5-c]pyridin-2-yl)-1H-pyrazolo[3,4-c]pyridin-5-yl)pyridin-3-yl)methyl)ethanamine] showed an IC50 in assay [1] of 834 nM. Also, in the assay with LL29 cells, the EC50 is ≤ 9 nM.

`CC(C)CC(=O)Nc1cncc(-c2cc3c(-c4nc5c(-c6ccc(F)cc6)nccc5[nH]4)n[nH]c3cn2)c1` [Compound 28, N-(5-(3-(4-(4-Fluorophenyl)-1H-imidazo[4,5-c]pyridin-2-yl)-1H-pyrazolo[3,4-c]pyridin-5-yl)pyridin-3-yl)-3-methylbutanamide]: in assay [1], it took 174 nM to reach half-maximal inhibition (IC50). The EC50 in the assay with LL29 cells amounted to 553 nM.

In turn, `CC(=O)c1ccc(-c2nccc3[nH]c(-c4n[nH]c5cnc(-c6cncc(NC(=O)CC(C)(C)C)c6)cc45)nc23)s1` [Compound 406, N-(5-(3-(4-(5-Acetylthiophen-2-yl)-1H-imidazo[4,5-c]pyridin-2-yl)-1H-pyrazolo[3,4-c]pyridin-5-yl)pyridin-3-yl)-3,3-dimethylbutanamide] registered a half-maximal inhibitory concentration (IC50) in assay [1] of 1920 nM. Also, the EC50 in the assay with LL29 cells is ≥ 9990 nM.
